Measured values taken from paper PMC2391111 (British Journal of Cancer, 2008).
“Also recorded” adds a separate entry of the source. Read-outs that look alike come from different tables or passages of the source. Each block holds one compound with its values, some of them ahead of it.

Tests used:
[1] = Plasma pharmacokinetics of bortezomib and docetaxel given in combination; format: in vivo, patients; settings: for AUC(0-t) / AUC(0-inf) / clearance / half-life / Vd / Cmax: human, plasma, intravenous; for AUC(0-t): read-out: AUC0–t, mean (%CV); for AUC(0-inf): read-out: AUC0–∞∞, mean (%CV); for clearance: read-out: CL, mean (%CV) (converted); for Cmax: read-out: Cmax, mean (%CV)
Text: In patients participating in pharmacokinetic analysis, blood samples were taken on day 1, cycle 1, to determine the plasma concentration time profile of docetaxel and bortezomib. Samples were collected immediately before docetaxel infusion and bortezomib injection and at prespecified intervals on day 1. Samples were also taken for bortezomib pharmacokinetic analysis on day 11 of cycle 1. Whole-blood samples were taken for pharmacodynamic analysis using 20S proteasome inhibition assay ([Lightcap et al, 2000]) immediately before and 1 h after bortezomib dosing on days 1 and 11 of cycles 1 and 2, and on days 2 and 12 of cycle 1, in a subset of patients participating in pharmacokinetic analysis.

20S proteasome = 20S proteasome (Homo sapiens, UniProt P28074); assay: 20S proteasome inhibition assay in whole blood; format: in vivo, patients
Sequence of 20S proteasome (P28074 60-263): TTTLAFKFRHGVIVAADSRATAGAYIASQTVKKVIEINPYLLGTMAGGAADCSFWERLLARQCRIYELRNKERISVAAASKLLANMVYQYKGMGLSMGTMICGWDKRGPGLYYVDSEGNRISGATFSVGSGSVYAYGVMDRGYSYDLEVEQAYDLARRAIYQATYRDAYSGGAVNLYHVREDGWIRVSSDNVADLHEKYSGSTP

[2] = system: HER2-positive breast cancer cell lines; design: method as in Cardoso et al, 2006; settings: HER2-positive cells, four cell lines ref Cardoso et al, 2006; cited from earlier work
metastatic breast cancer = settings: single agent, anthracycline-pretreated metastatic breast cancer ref Jones et al, 2005; cited from earlier work
[3] = system: alpha-1 acid glycoprotein (AAG), albumin, and lipoproteins; design: method as in Aventis Pharmaceuticals Inc, 2005; settings: in vitro ref Aventis Pharmaceuticals Inc, 2005; cited from earlier work
[4] = 1 mg, bortezomib 1.0 mg m^−2 (n=5), day 1, with docetaxel
[5] = 1 mg, bortezomib 1.0 mg m^−2 (n=5), day 11
[6] = 1.3 mg, bortezomib 1.3 mg m^−2 (n=3), day 1, with docetaxel
[7] = 1.3 mg, bortezomib 1.3 mg m^−2 (n=3), day 11
[8] = 1.5 mg, bortezomib 1.5 mg m^−2 (n=6), day 11
[9] = 1.5 mg, bortezomib 1.5 mg m^−2 (n=8), day 1, with docetaxel
[10] = 75 mg, docetaxel 75 mg m^−2 (n=7), day 1, with bortezomib
[11] = 100 mg, docetaxel 100 mg m^−2 (n=6), day 1, with bortezomib

C0, mean (%CV) ([1]; bortezomib 1.0 mg m^−2 (n=5), day 1, with docetaxel): 208 (34) ng ml^−1 | C0, mean (%CV) ([1]; bortezomib 1.0 mg m^−2 (n=5), day 11): 552 (148) ng ml^−1 | C0, mean (%CV) ([1]; bortezomib 1.3 mg m^−2 (n=3), day 1, with docetaxel): 137 (54) ng ml^−1 | C0, mean (%CV) ([1]; bortezomib 1.3 mg m^−2 (n=3), day 11): 237 (59) ng ml^−1 | C0, mean (%CV) ([1]; bortezomib 1.5 mg m^−2 (n=6), day 11): 153 (41) ng ml^−1 | C0, mean (%CV) ([1]; bortezomib 1.5 mg m^−2 (n=8), day 1, with docetaxel): 268 (71) ng ml^−1 | AUC(0-t) [1, 4]: 43 ng·h/mL | AUC(0-inf) [1, 4]: 54.6 ng·h/mL | clearance [1, 4]: 562 mL/min | half-life ([1]; 1 mg, bortezomib 1.0 mg m^−2 (n=5), day 1, with docetaxel, read-out: T½,z, mean (%CV) (converted)): 9.15 h | Vd ([1]; 1 mg, bortezomib 1.0 mg m^−2 (n=5), day 1, with docetaxel, read-out: Vss, mean (%CV)): 222 L | Vd ([1]; 1 mg, bortezomib 1.0 mg m^−2 (n=5), day 1, with docetaxel, read-out: Vz, mean (%CV)): 408 L | AUC(0-t) [1, 5]: 112 ng·h/mL | AUC(0-inf) [1, 5]: 133 ng·h/mL | clearance [1, 5]: 225 mL/min | half-life ([1]; 1 mg, bortezomib 1.0 mg m^−2 (n=5), day 11, read-out: T½,z, mean (%CV) (converted)): 12.2 h | Vd ([1]; 1 mg, bortezomib 1.0 mg m^−2 (n=5), day 11, read-out: Vss, mean (%CV)): 151 L | Vd ([1]; 1 mg, bortezomib 1.0 mg m^−2 (n=5), day 11, read-out: Vz, mean (%CV)): 237 L | half-life ([1]; 1 mg, bortezomib 1.0 mg m^−2, day 1, patients with measurable plasma concentrations at 24 h post-dose (n=2), read-out: T½,z 24-h, mean (converted)): 15.1 h | half-life ([1]; 1 mg, bortezomib 1.0 mg m^−2, day 11, patients with measurable plasma concentrations at 24 h post-dose (n=4), read-out: T½,z 24-h, mean (converted)): 14.3 h | AUC(0-t) [1, 6]: 35.5 ng·h/mL | AUC(0-inf) [1, 6]: 49 ng·h/mL | clearance [1, 6]: 850 mL/min | half-life ([1]; 1.3 mg, bortezomib 1.3 mg m^−2 (n=3), day 1, with docetaxel, read-out: T½,z, mean (%CV) (converted)): 14.2 h | Vd ([1]; 1.3 mg, bortezomib 1.3 mg m^−2 (n=3), day 1, with docetaxel, read-out: Vss, mean (%CV)): 596 L | Vd ([1]; 1.3 mg, bortezomib 1.3 mg m^−2 (n=3), day 1, with docetaxel, read-out: Vz, mean (%CV)): 924 L | AUC(0-t) [1, 7]: 90.5 ng·h/mL | AUC(0-inf) [1, 7]: 111 ng·h/mL | clearance [1, 7]: 350 mL/min | half-life ([1]; 1.3 mg, bortezomib 1.3 mg m^−2 (n=3), day 11, read-out: T½,z, mean (%CV) (converted)): 12.2 h | Vd ([1]; 1.3 mg, bortezomib 1.3 mg m^−2 (n=3), day 11, read-out: Vss, mean (%CV)): 237 L | Vd ([1]; 1.3 mg, bortezomib 1.3 mg m^−2 (n=3), day 11, read-out: Vz, mean (%CV)): 374 L | half-life ([1]; 1.3 mg, bortezomib 1.3 mg m^−2, day 1, patients with measurable plasma concentrations at 24 h post-dose (n=2), read-out: T½,z 24-h, mean (converted)): 18.1 h | half-life ([1]; 1.3 mg, bortezomib 1.3 mg m^−2, day 11, patients with measurable plasma concentrations at 24 h post-dose (n=2), read-out: T½,z 24-h, mean (converted)): 17.1 h | AUC(0-t) [1, 8]: 103 ng·h/mL | AUC(0-inf) [1, 8]: 161 ng·h/mL | clearance [1, 8]: 267 mL/min | half-life ([1]; 1.5 mg, bortezomib 1.5 mg m^−2 (n=6), day 11, read-out: T½,z, mean (%CV) (converted)): 23.6 h | Vd ([1]; 1.5 mg, bortezomib 1.5 mg m^−2 (n=6), day 11, read-out: Vss, mean (%CV)): 391 L | Vd ([1]; 1.5 mg, bortezomib 1.5 mg m^−2 (n=6), day 11, read-out: Vz, mean (%CV)): 538 L | AUC(0-t) [1, 9]: 69 ng·h/mL | AUC(0-inf) [1, 9]: 85.3 ng·h/mL | clearance [1, 9]: 615 mL/min | half-life ([1]; 1.5 mg, bortezomib 1.5 mg m^−2 (n=8), day 1, with docetaxel, read-out: T½,z, mean (%CV) (converted)): 6.9 h | Vd ([1]; 1.5 mg, bortezomib 1.5 mg m^−2 (n=8), day 1, with docetaxel, read-out: Vss, mean (%CV)): 209 L | Vd ([1]; 1.5 mg, bortezomib 1.5 mg m^−2 (n=8), day 1, with docetaxel, read-out: Vz, mean (%CV)): 282 L | half-life ([1]; 1.5 mg, bortezomib 1.5 mg m^−2, day 1, patients with measurable plasma concentrations at 24 h post-dose (n=2), read-out: T½,z 24-h, mean (converted)): 17.8 h | half-life ([1]; 1.5 mg, bortezomib 1.5 mg m^−2, day 11, patients with measurable plasma concentrations at 24 h post-dose, read-out: T½,z 24-h, mean (converted)): 23.6 h | half-life ([1]; following the first dose, patients with measurable plasma concentrations at 24 h post-dose, read-out: Terminal half-lives, mean values across dose levels): 15 to 18 h | Percent 20S proteasome inhibition, cycle 2 versus cycle 1 (20S proteasome; all dose groups): greater in cycle 2 than cycle 1 | Inhibition of 20S proteasome activity (20S proteasome; whole blood, 1 h post-dose): 46.14–88.80% | Inhibition of 20S proteasome activity (20S proteasome; whole blood, immediately prior to the dose on day 11): 10.93–51.18%
Structure (SMILES): CC(C)C[C@H](NC(=O)[C@H](Cc1ccccc1)NC(=O)c1cnccn1)B(O)O [Bortezomib]
Effect on the effect of trastuzumab [2]: acts synergistically

AUC(0-t) [1, 10]: 1700 ng·h/mL | AUC(0-inf) [1, 10]: 1850 ng·h/mL | clearance [1, 10]: 1420 mL/min | half-life ([1]; 75 mg, docetaxel 75 mg m^−2 (n=7), day 1, with bortezomib, read-out: T½,z, mean (%CV) (converted)): 10.4 h | Vd ([1]; 75 mg, docetaxel 75 mg m^−2 (n=7), day 1, with bortezomib, read-out: Vss, mean (%CV)): 180 L | Vd ([1]; 75 mg, docetaxel 75 mg m^−2 (n=7), day 1, with bortezomib, read-out: Vz, mean (%CV)): 920 L | half-life ([1]; 75 mg, docetaxel 75 mg m^−2, day 1, patients with measurable plasma concentrations at 24 h post-dose (n=3), read-out: T½,z 24-h, mean (converted)): 17.6 h | AUC(0-t) [1, 11]: 2550 ng·h/mL | AUC(0-inf) [1, 11]: 2730 ng·h/mL | clearance [1, 11]: 1160 mL/min | half-life ([1]; 100 mg, docetaxel 100 mg m^−2 (n=6), day 1, with bortezomib, read-out: T½,z, mean (%CV) (converted)): 15 h | Vd ([1]; 100 mg, docetaxel 100 mg m^−2 (n=6), day 1, with bortezomib, read-out: Vss, mean (%CV)): 372 L | Vd ([1]; 100 mg, docetaxel 100 mg m^−2 (n=6), day 1, with bortezomib, read-out: Vz, mean (%CV)): 1510 L | half-life ([1]; 100 mg, docetaxel 100 mg m^−2, day 1, patients with measurable plasma concentrations at 24 h post-dose (n=5), read-out: T½,z 24-h, mean (converted)): 17.4 h | Cmax ([1]; docetaxel 75 mg m^−2 (n=7), day 1, with bortezomib): 1620 ng/mL | Cmax ([1]; docetaxel 100 mg m^−2 (n=6), day 1, with bortezomib): 2520 ng/mL
Structure (SMILES): CC(=O)O[C@@]12CO[C@@H]1C[C@H](O)[C@@]1(C)C(=O)[C@H](O)C3=C(C)[C@@H](OC(=O)[C@H](O)[C@@H](NC(=O)OC(C)(C)C)c4ccccc4)C[C@@](O)([C@@H](OC(=O)c4ccccc4)[C@H]21)C3(C)C [Docetaxel]
Effect of coadministered docetaxel on 20S proteasome inhibition by bortezomib (20S proteasome; whole blood): appeared not to affect; also recorded: did not appear to affect | Median TTP (metastatic breast cancer): 5.7 months | Response rate (metastatic breast cancer): 32% | Plasma protein binding [3]: extensively plasma protein-bound

Structure (SMILES): CC(=O)O[C@H]1C(=O)[C@@]2(C)[C@H]([C@H](OC(=O)c3ccccc3)[C@]3(O)C[C@H](OC(=O)[C@H](O)[C@@H](NC(=O)c4ccccc4)c4ccccc4)C(C)=C1C3(C)C)[C@]1(OC(C)=O)CO[C@@H]1C[C@@H]2O [paclitaxel]
Median TTP (metastatic breast cancer): 3.6 months | Response rate (metastatic breast cancer): 25%
